Experimental data taken from US20040175447A1, “Feeds and fertilizers containing pentacyclic triterpenes” (The Nisshin OilliO, Ltd., priority 2001, published 2004).

Test system: B-16 melanoma cells
Assay: Evaluation of melanin production-inhibitory effect (cell-whitening degree of cultured B-16 melanoma cells); for Melanin production-inhibitory effect (cell-whitening degree): key: ++: The whitening degree is higher than that observed for the positive control; +: The whitening degree is almost identical to that observed for the positive control; ±: The whitening degree is not higher than that observed for the positive control, but higher than that observed for the control; −: The whitening degree is almost identical to that observed for the control
Assay type: cell-based
Conditions: for Melanin production-inhibitory effect (cell-whitening degree): positive control 450 ppm vitamin C-magnesium phosphate; for melanogenesis-inhibitory function relative to that observed when 450 ppm of vitamin C-magnesium phosphate (standard) is added: from Table 1
Description: In the present invention, the melanogenesis-inhibitory effect is evaluated and compared on the basis of the results of tests for examining the melanogenesis-inhibitory function in which B-16 melanoma cells are cultivated, as a primary evaluation. Moreover, a feed is, for instance, practically prepared and its effectiveness in the melanogenesis-inhibition is evaluated as a secondary evaluation. It has been confirmed that the pentacyclic triterpenes whose strong melanogenesis-inhibitory function is confirmed by the cell culture test as the primary evaluation also show an excellent effect in the secondary evaluation test. In addition, it has also been confirmed that there is a correlation between the results obtained in these two evaluation methods.
If the culture system includes a melanogenesis-inhibitory substance during the proliferation thereof, the blackening of the cells is suppressed while the whitening thereof is relatively promoted. Accordingly, the melanogenesis-inhibitory function of the substance can be evaluated by comparing the degree of whitening observed for the substance with the degree of blackening observed for a control. The evaluated results of the melanogenesis-inhibitory effect obtained in this cell culture system clearly indicate that the pentacyclic triterpenes and/or physiologically acceptable salts thereof or derivatives thereof have quite strong melanogenesis-inhibitory effects. For instance, when comparing the effects thereof with that achieved by vitamin C-magnesium phosphate, the melanogenesis-inhibitory effect is about 100 to 200 times, for maslinic acid, about 100 to 200 times, for maslinic acid salts, about 10 to 100 times, for erythrodiol, about 30 to 120 times, for uvaol, about 30 to 120 times, for betulinic acid, about 10 to 100 times, for betulin, about 100 to 200 times, for ethyl maslinate, about 50 to 150 times, for acetylated maslinic acid, about 30 to 120 times, for triethylsilylated maslinic acid, about 50 to 150 times, for stearoyl derivative of ethyl maslinate, about 10 to 100 times, for acetylated erythrodiol, about 10 to 100 times, for acetylated uvaol, about 10 to 100 times, for ethyl betulinate, and about 5 to 50 times, for acetylated betulin, that observed for the vitamin C-magnesium phosphate.
A culture medium was dispensed to wells of a 6-well plate (2 mL/well each), followed by inoculation of a desired amount of B-16 melanoma cells on each well, allowing the wells to stand at 37° C. and 5% CO2 to thus cultivate the cells. On the day subsequent thereto, a candidate sample (pentacyclic triterpenes) solution prepared was added to and mixed with the culture medium containing the cells and the cultivation was continued. The culture medium was replaced with fresh one on the 5th day from the initiation of the cultivation and the prepared sample solution was again added to the wells. On the next day, the culture medium was removed to recover the cells, followed by the washing of these cells with PBS (phosphate buffered physiological saline) and the subsequent evaluation of the cell-whitening degree. In this respect, the melanogenesis-inhibitory function was evaluated by comparing the cell-whitening degree thus obtained with that observed when using 450 ppm of vitamin C-magnesium phosphate as a known whitening agent (a positive control) and that obtained when any candidate sample was not used (control), according to the following evaluation criteria.
The evaluation criteria for the cell-whitening degree are as follows:
Regarding the results listed in Table 1, the whitening degree observed when adding 450 ppm of vitamin C-magnesium phosphate is selected as a standard.

Compound	Melanin production-inhibitory effect (cell-whitening degree) (2 ppm)	Melanin production-inhibitory effect (cell-whitening degree) (6 ppm)	Melanin production-inhibitory effect (cell-whitening degree) (10 ppm)	Melanin production-inhibitory effect (cell-whitening degree) (25 ppm)	Melanin production-inhibitory effect (cell-whitening degree) (50 ppm)	melanogenesis-inhibitory function relative to that observed when 450 ppm of vitamin C-magnesium phosphate (standard) is added	Melanin production-inhibitory effect (cell-whitening degree) (4 ppm)	Melanin production-inhibitory effect (cell-whitening degree) (8 ppm)	Melanin production-inhibitory effect (cell-whitening degree) (15 ppm)
CC(=O)OC[C@]12CC[C@@H](C)[C@H](C)[C@H]1C1=CC[C@@H]3[C@@]4(C)CC[C@H](OC(C)=O)C(C)(C)[C@@H]4CC[C@@]3(C)[C@]1(C)CC2 [Compound of Synthesis 7, 3,28-O-Di-Acetyl-Uvaol]	−	−	±	+	+	about 20 times			
CC1(C)CC[C@]2(CO)CC[C@]3(C)C(=CC[C@@H]4[C@@]5(C)CC[C@H](O)C(C)(C)[C@@H]5CC[C@]43C)[C@@H]2C1 [Erythrodiol]	±	±	±	+	+	about 20 times			
C=C(C)[C@@H]1CC[C@]2(C(=O)O)CC[C@]3(C)[C@H](CC[C@@H]4[C@@]5(C)CC[C@H](O)C(C)(C)[C@@H]5CC[C@]43C)[C@@H]12 [Betulinic acid]	−	±	+	+	+	about 40 times			
CCOC(=O)[C@]12CC[C@@H](C)[C@H](C)[C@H]1C1=CC[C@@H]3[C@@]4(C)CC[C@H](O)C(C)(C)[C@@H]4CC[C@@]3(C)[C@]1(C)CC2 [Compound of Synthesis 6, Ethyl Ursolate]	±	++	++			about 110 times	+	++	
C[C@H]1[C@H](C)CC[C@]2(C(=O)O)CC[C@]3(C)C(=CC[C@@H]4[C@@]5(C)CC[C@H](O)C(C)(C)[C@@H]5CC[C@]43C)[C@H]12 [Ursolic acid]	±	++	++			about 110 times	+	++	
CC[Si](CC)(CC)OC(=O)[C@]12CCC(C)(C)C[C@H]1C1=CC[C@@H]3[C@@]4(C)C[C@@H](O[Si](CC)(CC)CC)[C@H](O[Si](CC)(CC)CC)C(C)(C)[C@@H]4CC[C@@]3(C)[C@]1(C)CC2 [Compound of Synthesis 3, Triethylsilyl Ester of 2,3-O-Di-Triethylsilyl-Maslinic Acid]	−	±	+	+	+	about 40 times			
C[C@H]1[C@H](C)CC[C@]2(CO)CC[C@]3(C)C(=CC[C@@H]4[C@@]5(C)CC[C@H](O)C(C)(C)[C@@H]5CC[C@]43C)[C@H]12 [Uvaol]	−	−	+	+	+	about 40 times			
CCCCCCCCCCCCCCCCCC(=O)O[C@@H]1C[C@]2(C)[C@H]3CC=C4[C@@H]5CC(C)(C)CC[C@]5(C(=O)OCC)CC[C@@]4(C)[C@]3(C)CC[C@H]2C(C)(C)[C@H]1OC(=O)CCCCCCCCCCCCCCCCC [Compound of Synthesis 4, Ethyl 2,3-O-Di-Stearoyl-Maslinate]	±	+	++			about 75 times	±	++	++
CC1(C)CC[C@]2(C(=O)O)CC[C@]3(C)C(=CC[C@@H]4[C@@]5(C)C[C@@H](O)[C@H](O)C(C)(C)[C@@H]5CC[C@]43C)[C@@H]2C1 [Purified maslinic acid 2, maslinic acid]	±	++	++				+	++	
C=C(C)[C@@H]1CC[C@]2(CO)CC[C@]3(C)[C@H](CC[C@@H]4[C@@]5(C)CC[C@H](O)C(C)(C)[C@@H]5CC[C@]43C)[C@@H]12 [Betulin]	−	±	±	+	+	about 20 times			
CC(=O)O[C@@H]1C[C@]2(C)[C@H]3CC=C4[C@@H]5CC(C)(C)CC[C@]5(C(=O)O)CC[C@@]4(C)[C@]3(C)CC[C@H]2C(C)(C)[C@H]1OC(C)=O [Compound of Synthesis 2, 2,3-O-Di-Acetyl-Maslinic Acid]	±	+	++			about 75 times	±	++	++
C=C(C)[C@@H]1CC[C@]2(C(=O)OCC)CC[C@]3(C)[C@H](CC[C@@H]4[C@@]5(C)CC[C@H](O)C(C)(C)[C@@H]5CC[C@]43C)[C@@H]12 [Compound of Synthesis 8, Ethyl Betulinate]	−	±	±	+	+	about 20 times			
C=C(C)[C@@H]1CC[C@]2(COC(C)=O)CC[C@]3(C)[C@H](CC[C@@H]4[C@@]5(C)CC[C@H](OC(C)=O)C(C)(C)[C@@H]5CC[C@]43C)[C@@H]12 [Compound of Synthesis 9, 3,28-O-Di-Acetyl-Betulin]	−	−	±	±	+	about 10 times			
CC(=O)OCC12CCC(C)(C)CC1C1=CCC3C4(C)CCC(OC(C)=O)C(C)(C)C4CCC3(C)C1(C)CC2 (stereo not shown) [Compound of Synthesis 5, 3,28-O-Di-Acetyl-Erythrodiol]	−	±	±	+	+	about 20 times			
